Values after ≈ are worked out from the molar mass of the structure shown. Like-named read-outs stand apart in the source and are kept apart here.
How the values were obtained:
[1] = test system: A2780 ovarian carcinoma cells; assay: Antiproliferative activity on A2780 cells (MTT); type: cell-based; settings: Homo sapiens, 96 h, four days of incubation, read-out: Cellular activity pIC50 C.2 (converted)
Protocol: Cellular activity of the compounds of formula (I) was determined on A2780 tumour cells using a […] assay for cell toxicity or survival (Mosmann Tim, Journal of Immunological Methods 65: 55-63, 1983)(see example C.2).
All compounds tested were dissolved in DMSO and further dilutions were made in culture medium. Final DMSO concentrations never exceeded 0.1% (v/v) in cell proliferation assays. Controls contained A2780 cells and DMSO without compound and blanks contained DMSO but no cells. MTT was dissolved at 5 mg/ml in PBS. A glycine buffer comprised of 0.1 M glycine and 0.1 M NaCl buffered to pH 10.5 with NaOH (1 N) was prepared (all reagents were from Merck).
The human A2780 ovarian carcinoma cells (a kind gift from Dr. T. C. Hamilton [Fox Chase Cancer Centre, Pennsylvania, USA]) were cultured in RPMI 1640 medium supplemented with 2 mM L-glutamine, 50 μg/ml gentamicin and 10% fetal calf serum. Cells were routinely kept as monolayer cultures at 37° C. in a humidified 5% CO2 atmosphere. Cells were passaged once a week using a trypsin/EDTA solution at a split ratio of 1:40. All media and supplements were obtained from Life Technologies. Cells were free of mycoplasma contamination as determined using the Gen-Probe Mycoplasma Tissue Culture kit (supplier: BioMérieux).
Cells were seeded in NUNC™ 96-well culture plates (Supplier: Life Technologies) and allowed to adhere to the plastic overnight. Densities used for plating were 1500 cells per well in a total volume of 200 μl medium. After cell adhesion to the plates, medium was changed and drugs and/or solvents were added to a final volume of 200 μL Following four days of incubation, medium was replaced by 200 μl fresh medium and cell density and viability was assessed using an MTT-based assay. […] For each sample, the mean value for cell growth (in absorbance units) was expressed as a percentage of the mean value for cell growth of the control. […] Herein the effects of test compounds are expressed as pIC50 (the negative log value of the IC50-value) (see Table F-2).

[2] = biological target: histone deacetylase (HeLa nuclear extracts); assay: In vitro assay for inhibition of histone deacetylase with fluorescent-labelled substrate; type: biochemical; settings: Fluor de Lys substrate
Source text: The in vitro assay for inhibition of histone deacetylase (see example C. 1) measures the inhibition of HDAC enzymatic activity obtained with the compounds of formula (I).
The HDAC Fluorescent Activity Assay/Drug Discovery Kit of Biomol (cat.No: AK-500-0001) was used. The HDAC Fluorescent Activity Assay is based on the Fluor de Lys (Fluorogenic Histone deAcetylase Lysyl) substrate and developer combination. The Fluor de Lys substrate, comprises an acetylated lysine side chain. Deacetylation of the substrate sensitizes the substrate so that, in the second step, treatment with the Fluor de Lys developer produces a fluorophore.
HeLa nuclear extracts (supplier: Biomol) were incubated at 60 μg/ml with 75 μM of substrate. The Fluor de Lys substrate was added in a buffer containing 25 mM Tris, 137 mM NaCl, 2.7 mM KCl and 1 mM MgCl2.6H2O at pH 7.4. After 30 min, 1 volume of the developer was added. The fluorophore was excited with 355 nm light and the emitted light (450 nm) was be detected on a fluorometric plate reader.
For each experiment, controls (containing HeLa nuclear extract and buffer), a blank incubation (containing buffer but no HeLa nuclear extract) and samples (containing compound dissolved in DMSO and further diluted in buffer and HeLa nuclear extract) were run in parallel. In first instance, compounds were tested at a concentration of 10^−5M. […] All sample were tested 4 times. In each test the blank value was substracted from both the control and the sample values. The control sample represented 100% of substrate deactylation. For each sample the fluorescence was expressed as a percentage of the mean value of the controls. […] Herein the effects of test compounds are expressed as pIC50 (the negative log value of the IC50-value) (see Table F-2).

[3] = Solubility at pH 2.3 (chemiluminescent nitrogen detector); type: physicochemical; settings: pH 2.3, aqueous buffer; read-out: Solubility C.3.b. pH = 2.3
Protocol: The solubility of a compound measures the ability of a compound to stay in solution. In a first method the ability of a compound to stay in aqueous solution upon dilution (see example C.3.a) is measured. DMSO-stock solutions are diluted with a single aqueous buffer solvent in different consecutive steps. In this method, mixtures are then scanned in the BD Gentest Solubility Scanner for the occurrence of precipitation. In a second method the solubility of a compound at different pH's can be measured with the use of a Chemiluminescent Nitrogen Detector (see example C.3.b).
The solubility of a compound, at pH 2.3, can also be measured with the use of a chemiluminescent nitrogen detector (see Table F-2).

Row | IC50 [1] [nM] | Enzymatic activity pIC50 C.1 [2] | SMILES | other results
1 | – | – | COc1cc(N)c(Cl)cc1C(=O)NC1CCN(CCCOc2ccc(F)cc2)CC1OC (centres unmarked) [Cisapride] | % metabolism (human, 15 min, 5 μM): 45%
2 | 3160 | <6 | CCCn1cc(CCNCC2CCN(c3ncc(C(=O)Nc4ccccc4N)cn3)CC2)c2cc(Cl)ccc21 [Compound 1] | –
3 | 100 | 4.8 | Cn1cc(CNCC2CCN(c3ncc(C(=O)Nc4ccccc4N)cn3)CC2)c2ccccc21 [Compound 2] | solubility [3]: 3700 µg/mL (≈ 7.88 mM)
4 | 1580 | <6 | CCCn1cc(CNCC2CCN(c3ncc(C(=O)Nc4ccccc4N)cn3)CC2)c2cc(F)ccc21 [Compound 3] | –
5 | – | <6 | Nc1ccccc1NC(=O)c1cnc(N2CCC(CNCCc3c[nH]c4ccccc34)CC2)nc1 [Compound 4] | –
6 | – | <6 | CS(=O)(=O)N(CCc1c[nH]c2ccccc12)CC1CCN(c2ncc(C(=O)Nc3ccccc3N)cn2)CC1 [Compound 5] | –
7 | – | – | CCCO [propanol] | % metabolism (15 min incubation with microsomes, compound 5 μM): 25%

— US8119650B2, “Aminophenyl derivatives as novel inhibitors of histone deacetylase” (Janssen Pharmaceutica N.V., priority 2006, dated 2012)
